The source of these data is US20220089609A1, “SUBSTITUTED QUINAZOLINONE DERIVATIVES AND THEIR USE AS POSITIVE ALLOSTERIC MODULATORS OF MGLUR4” (DOMAIN THERAPEUTICS, priority 2018, published 2022).

“And” between values parts separate entries of the source, which are not always exact repeats. Equal entries are not always repeated. Structures can show the parent of a compound that is named as a salt.

T1 sequence (Q14833 33-912): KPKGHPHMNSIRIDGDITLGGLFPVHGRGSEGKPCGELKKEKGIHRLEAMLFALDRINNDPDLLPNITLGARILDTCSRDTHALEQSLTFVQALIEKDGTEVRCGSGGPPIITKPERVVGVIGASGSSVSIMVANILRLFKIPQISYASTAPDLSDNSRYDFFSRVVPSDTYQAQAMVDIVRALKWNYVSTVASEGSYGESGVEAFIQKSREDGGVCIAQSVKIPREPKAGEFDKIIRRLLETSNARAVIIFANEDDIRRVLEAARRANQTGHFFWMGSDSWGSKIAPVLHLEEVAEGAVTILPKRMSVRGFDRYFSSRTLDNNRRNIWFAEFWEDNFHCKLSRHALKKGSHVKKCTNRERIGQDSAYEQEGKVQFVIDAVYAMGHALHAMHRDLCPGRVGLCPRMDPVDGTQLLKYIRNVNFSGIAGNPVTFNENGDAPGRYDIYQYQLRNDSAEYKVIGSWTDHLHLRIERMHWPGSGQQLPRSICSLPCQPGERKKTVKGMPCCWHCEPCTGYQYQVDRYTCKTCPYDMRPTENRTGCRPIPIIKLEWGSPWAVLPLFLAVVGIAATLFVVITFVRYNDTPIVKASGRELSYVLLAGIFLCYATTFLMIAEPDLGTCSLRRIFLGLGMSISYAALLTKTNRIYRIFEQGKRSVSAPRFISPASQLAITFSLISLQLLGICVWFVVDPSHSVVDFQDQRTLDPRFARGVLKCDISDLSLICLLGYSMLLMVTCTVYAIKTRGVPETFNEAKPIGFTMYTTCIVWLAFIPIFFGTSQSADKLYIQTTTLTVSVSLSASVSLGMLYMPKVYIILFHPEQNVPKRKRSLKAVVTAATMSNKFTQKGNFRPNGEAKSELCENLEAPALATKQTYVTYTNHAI

The first assay concerns the target T1, human mGluR4 (hmGluR4) (Homo sapiens, UniProt Q14833).
T1 construct: expressed in transfected cells; host or cells: HEK-293 cells, transient co-transfection by electroporation
Nature of the assay: Calcium assay EC50 determination, positive allosteric modulator activity on hmGluR4 transiently over-expressed in HEK-293 cells. The format is cell-based. The note with it: PAM mode with EC20 glutamate; hmGluR4 in HEK-293 cells; intracellular calcium (Fluo4AM); read-out: mGluR4 positive allosteric modulator activity, half maximal effective concentration (EC50). As to the method:
Compounds are tested successively for their agonist and positive allosteric modulator activities on human mGluR4 (hmGluR4) transiently over-expressed in HEK-293 cells. Compounds exert agonist activity if, by themselves in absence of glutamate, they are able to activate hmGluR4; and they exert positive allosteric modulator activity if they increase the action of glutamate.
HEK-293 cells are maintained in Modified Eagle's Medium supplemented with 10% Foetal Calf Serum, 1% Penicillin/Streptomycin and 1% non-essential amino acids at 37° C./5% CO2.
Cells are co-transfected by electroporation with four DNA plasmids encoding hmGluR4, a chimeric G protein allowing redirection of the activation signal to intracellular calcium pathway, and glutamate transporters to decrease extracellular glutamate concentration so as to limit receptor desensitization. After transfection, cells are cultured for 24 h at 37° C./5% CO2.
Calcium Assay EC50 determination
Receptor activity is detected by changes in intracellular calcium measured using the fluorescent Ca^2+ sensitive dye, Fluo4AM (Molecular Probes).
On the day of the assay, culture medium is aspirated and replaced during 3 hours by medium without serum supplemented with 1% Glutamax, 1% Penicillin/Streptomycin and 1% non-essential amino acids. Then, cells are washed with freshly prepared buffer B (HBSS 1× (PAA), Hepes 20 mM, MgSO4-7H2O 1 mM, Na2CO3 3.3 mM, CaCl2-2H2O 1.3 mM, 0.1% BSA, Probenecid 2.5 mM) and loaded at 37° C. in 5% CO2 for 1.5 hours with buffer B containing 1 μM Fluo4AM, 0.1 mg/mL Pluronic Acid, 7 μg/mL Glutamate Pyruvate Transaminase and 2 mM sodium pyruvate. Afterwards cells are washed twice with buffer B. Then cells are detached using StemPro Accutase (Fisher Scientific), resuspended in buffer B and seeded in 384 well plate at a density of 30,000 cells per well. Addition of compounds and intracellular Ca^2+ measurements (excitation 485 nm, emission 525 nm) are performed by the fluorescence microplate reader FLIP^Tetra (Molecular Devices).
Agonist and positive allosteric modulator activities of compounds are consecutively evaluated on the same cell plate. Agonist activity is first tested during 10 minutes with the addition of compound alone on the cells. Then, cells are stimulated by an EC20 glutamate concentration and fluorescence is recorded for additional 3 minutes. EC20 glutamate concentration is the concentration giving 20% of the maximal glutamate response. Agonist or positive allosteric modulator activity(ies) are evaluated in comparison to basal signals evoked by buffer B or EC20 glutamate alone, respectively.
(In general: Calcium flux is commonly read through the fluorescence of an indicator in the cells.)
On to `Cc1cc(N2CCC3(CCOCC3)C2)cc2c(=O)[nH]c(-c3cc4ccsc4cn3)nc12` [Compound 93, 8-Methyl-6-(8-oxa-2-aza-spiro[4.5]dec-2-yl)-2-thieno[2,3-c]pyridin-5-yl-3H-quinazolin-4-one], for which the EC50 is no more than 100 nM.

In the case of `O=c1[nH]c(-c2cc3sccc3cn2)nc2ccc(OCCc3cccnc3)cc12` [Compound 23, 6-(2-Pyridin-3-yl-ethoxy)-2-thieno[3,2-c]pyridin-6-yl-3H-quinazolin-4-one hydrochloride], the EC50 was 100 to 1000 nM.

As to `Cc1cc(N2CCC3(CCOCC3)CC2)cc2c(=O)[nH]c(-c3cc(C(F)(F)F)ccn3)nc12` [Compound 105, 8-Methyl-6-(3-oxa-9-aza-spiro[5.5]undec-9-yl)-2-(4-trifluoromethyl-pyridin-2-yl)-3H-quinazolin-4-one], the EC50 is no more than 100 nM.

For the compound `CCC(=O)N1CCN(c2ccc3nc(-c4cc(C(F)(F)F)ccn4)[nH]c(=O)c3c2)CC1` [Compound 54, 6-(4-Propionyl-piperazin-1-yl)-2-(4-trifluoromethyl-pyridin-2-yl)-3H-quinazolin-4-one], the EC50 was in the range of 1000 to 10000 nM.

As for `Cc1cc(OCCCc2ccncc2)cc2c(=O)[nH]c(-c3cc4cccn4cn3)nc12` [Compound 106, 8-methyl-6-(3-pyridin-4-yl-propoxy)-2-pyrrolo[1,2-c]pyrimidin-3-yl-3H-quinazolin-4-one hydrochloride], the EC50 was no more than 100 nM.

With `CC(=O)N1CCC(Oc2ccc3nc(-c4cc5ccsc5cn4)[nH]c(=O)c3c2)C1` (stereo not shown) [Compound 51, 6-(1-Acetyl-pyrrolidin-3-yloxy)-2-thieno[2,3-c]pyridin-5-yl-3H-quinazolin-4-one], the EC50 is 100 to 1000 nM.

On to `CCC(=O)N1CC(Oc2cc(C)c3nc(-c4cc(C(F)(F)F)ccn4)[nH]c(=O)c3c2)C1` [Compound 103, 8-Methyl-6-(1-propionyl-azetidin-3-yloxy)-2-(4-trifluoromethyl-pyridin-2-yl)-3H-quinazolin-4-one], for which the EC50 is 100 to 1000 nM.

With `Cl.O=c1[nH]c(-c2cc3ccsc3cn2)nc2ccc(OCCCc3ccncc3)cc12` [Compound 4, hydrochloride], the EC50 was in the range of 100 to 1000 nM.

Consider `Cc1cnc(-c2nc3ccc(OCCCc4ccncc4)cc3c(=O)[nH]2)cn1` [Compound 13, 2-(5-methylpyrazin-2-yl)-6-[3-(4-pyridyl)propoxy]-3H-quinazolin-4-one dihydrochloride], for which the EC50 was in the range of 1000 to 10000 nM.

Turning to `CC(=O)N1CCC(Oc2ccc3nc(-c4ccccn4)[nH]c(=O)c3c2)CC1` [Compound 41, 6-(1-Acetyl-piperidin-4-yloxy)-2-pyridin-2-yl-3H-quinazolin-4-one], the EC50 is greater than 10000 nM.

On to `O=c1[nH]c(-c2cc(C(F)(F)F)ccn2)nc2ccc(OCCC3CCOCC3)cc12` [Compound 58, 6-[2-(Tetrahydro-pyran-4-yl)-ethoxy]-2-(4-trifluoromethyl-pyridin-2-yl)-3H-quinazolin-4-one], for which the EC50 was 100 to 1000 nM.

Regarding `Cc1cc(CN2CCOCC2)cc2c(=O)[nH]c(-c3cc(C(F)(F)F)ccn3)nc12` [Compound 115, 8-methyl-6-(morpholinomethyl)-2-[4-(trifluoromethyl)-2-pyridyl]-3H-quinazolin-4-one hydrochloride], the EC50 was no more than 100 nM.

Take `Cc1cc(N2CCC3(CCOCC3)CC2)cc2c(=O)[nH]c(-c3cc4ccsc4cn3)nc12` [Compound 91, 8-Methyl-6-(3-oxa-9-aza-spiro[5.5]undec-9-yl)-2-thieno[2,3-c]pyridin-5-yl-3H-quinazolin-4-one]: the EC50 was no more than 100 nM.

For the compound `O=c1[nH]c(-c2cc(C3CC3)ccn2)nc2ccc(OCCCc3ccncc3)cc12` [Compound 19, 2-(4-cyclopropyl-2-pyridyl)-6-[3-(4-pyridyl)propoxy]-3H-quinazolin-4-one dihydrochioride], the EC50 is 100 to 1000 nM.

For `Cc1cc(CCN2CCOCC2)cc2c(=O)[nH]c(-c3cc4cccn4cn3)nc12` [Compound 124, 8-Methyl-6-(2-morpholin-4-yl-ethyl)-2-pyrrolo[1,2-c]pyrimidin-3-yl-3H-quinazolin-4-one hydrochloride], the EC50 is no more than 100 nM.

With `O=c1[nH]c(-c2cc(Cl)ccn2)nc2ccc(OCCCc3ccncc3)cc12` [Compound 15, 2-(4-chloro-2-pyridyl)-6-[3-(4-pyridyl)propoxy]-3H-quinazolin-4-one hydrochloride], the EC50 was 100 to 1000 nM and < 1000 nM.

In the case of `Cc1cc(OCC2CCOC2)cc2c(=O)[nH]c(-c3cc(C(F)(F)F)ccn3)nc12` (stereo not shown) [Compound 102, 8-Methyl-6-(tetrahydro-furan-3-ylmethoxy)-2-(4-trifluoromethyl-pyridin-2-yl)-3H-quinazolin-4-one], the EC50 was no more than 100 nM.

Take `Cc1cc(N2CCC3(CCOCC3)CC2)nc2c(=O)[nH]c(-c3cc4ccsc4cn3)nc12` [Compound 113]: the EC50 is 100 to 1000 nM.

For `O=c1[nH]c(-c2cc3ccsc3cn2)nc2c(C3CC3)cc(OCCCc3ccncc3)cc12` [Compound 73, 8-Cyclopropyl-6-(3-pyridin-4-yl-propoxy)-2-thieno[2,3-c]pyridin-5-yl-3H-quinazolin-4-one hydrochloride], the EC50 lay within 100 to 1000 nM.

As to `Cc1cc(OCCC2CCOC2)cc2c(=O)[nH]c(-c3cc4ccsc4cn3)nc12` (stereo not shown) [Compound 78, 8-Methyl-6-[2-(tetrahydro-furan-3-yl)-ethoxy]-2-thieno[2,3-c]pyridin-5-yl-3H-quinazolin-4-one], the EC50 is no more than 100 nM.

As for `Cc1cc(N2CC3(CCOC3)C2)cc2c(=O)[nH]c(-c3cc4ccsc4cn3)nc12` [Compound 90, 8-Methyl-6-(6-oxa-2-aza-spiro[3.4]oct-2-yl)-2-thieno[2,3-c]pyridin-5-yl-3H-quinazolin-4-one], the EC50 is no more than 100 nM.

`O=c1[nH]c(-c2cc3cccn3cn2)nc2ccc(OCCN3CCOCC3)cc12` [Compound 33, 6-(2-Morpholin-4-yl-ethoxy)-2-pyrrolo[1,2-c]pyrimidin-3-yl-3H-quinazolin-4-one hydrochloride]: the EC50 was greater than 10000 nM.

`CCc1cc(OCCCc2ccncc2)cc2c(=O)[nH]c(-c3cc4ccsc4cn3)nc12` [Compound 74, 8-Ethyl-6-(3-pyridin-4-yl-propoxy)-2-thieno[2,3-c]pyridin-5-yl-3H-quinazolin-4-one hydrochloride]: the EC50 fell in the range of 100 to 1000 nM.

`O=c1[nH]c(-c2cccc(C(F)(F)F)n2)nc2ccc(OCCCc3ccncc3)cc12` [Compound 17, 6-[3-(4-pyridyl)propoxy]-2-[6-(trifluoromethyl)-2-pyridyl]-3H-quinazolin-4-one hydrochloride]: the EC50 is no more than 100 nM.

In the case of `Cc1cc(OCC2CCOC2)cc2c(=O)[nH]c(-c3cc4cccn4cn3)nc12` (stereo not shown) [Compound 107, 8-methyl-2-pyrrolo[1,2-c]pyrimidin-3-yl-6-(tetrahydro-furan-3-ylmethoxy)-3H-quinazolin-4-one], the EC50 was no more than 100 nM.

Take `CCC(=O)N1CCC(COc2cc(C)c3nc(-c4cc5ccsc5cn4)[nH]c(=O)c3c2)CC1` [Compound 87, 8-Methyl-6-(1-propionyl-piperidin-4-ylmethoxy)-2-thieno[2,3-c]pyridin-5-yl-3H-quinazolin-4-one]: the EC50 lay in the range of 100 to 1000 nM.

As to `CCC(=O)N1CC(Oc2ccc3nc(-c4cc5ccsc5cn4)[nH]c(=O)c3c2)C1` [Compound 30, 6-(1-Propionyl-azetidin-3-yloxy)-2-thieno[2,3-c]pyridin-5-yl-3H-quinazolin-4-one], the EC50 fell in the range of 100 to 1000 nM.

For `Cc1cc(OCC2CCN(C3COC3)CC2)cc2c(=O)[nH]c(-c3cc4ccsc4cn3)nc12` [Compound 86, 8-Methyl-6-(1-oxetan-3-yl-piperidin-4-ylmethoxy)-2-thieno[2,3-c]pyridin-5-yl-3H-quinazolin-4-one], the EC50 is no more than 100 nM.

On to `CCC(=O)N1CCC(Oc2ccc3nc(-c4cc5sccc5cn4)[nH]c(=O)c3c2)CC1` [Compound 32, 6-(1-Propionyl-piperidin-4-yloxy)-2-thieno[3,2-c]pyridin-6-yl-3H-quinazolin-4-one], for which the EC50 is 100 to 1000 nM.

Still in this assay, the particulars now being: up to 100 μM.
For the compound `O=c1[nH]c(-c2cccc(C(F)(F)F)c2)nc2ccc(OCCCc3ccncc3)cc12` [Compound 21, 6-[3-(4-pyridyl)propoxy]-2-[3-(trifluoromethyl)phenyl]-3H-quinazolin-4-one hydrochloride], the “PAM activity on mGluR4” value is “no PAM activity”.

In the case of `Cn1c(-c2cc3sccc3cn2)nc2ccc(OCCCc3ccncc3)cc2c1=O` [Compound 38, 3-Methyl-6-(3-pyridin-4-yl-propoxy)-2-thieno[3,2-c]pyridin-6-yl-quinazolin-4-one], the “PAM activity on mGluR4” value is listed as “no PAM activity”.
